Values after ≈ are worked out from the molar mass of the structure shown. Blank lines part the entries; values can stand above or below the compound they belong to. Active and inactive are the calls of the source. No cut-off for these calls is given here.
Experiments:
[1] = Inhibition of tubulin polymerization
[2] = tested on: Human immunodeficiency virus; assay: Antiviral activity against HIV; format: functional, organism-based; details: Human immunodeficiency virus 1
[3] = tested on: CAKI-1; assay: Cytotoxicity against human Caki1 cells; format: functional; details: read-out: ED50 (the source's name)
[4] = biological target: DNA topoisomerase 2-alpha (Homo sapiens) (UniProt P11388); assay: Inhibition of topoisomerase 2
[5] = tested on: MCF7; assay: Cytotoxicity against human MCF7 cells; format: functional; details: for EC50: read-out: ED50 (the source's name)
[6] = Cytotoxicity against human NCI60 cells; format: functional; details: for TGI: read-out: pGI100 (converted)
[7] = Cytotoxicity against human melanoma cells; format: functional; details: Melanoma cell
[8] = Cytotoxicity against human renal cancer cells; format: functional; details: Cancer cell lines
[9] = tested on: MOLT-4; assay: Cytotoxicity against human MOLT4 cells; format: functional
[10] = tested on: KB; assay: Cytotoxicity against human KB cells; format: functional; details: for IC50: read-out: ID50 (the source's name); for CC50: read-out: LD50 (the source's name); for EC50: read-out: ED50 (the source's name)
[11] = tested on: Mus musculus; assay: Toxicity in ip dosed nude mouse; format: organism-based; details: in vivo
[12] = biological target: DNA topoisomerase 2-alpha (Homo sapiens) (UniProt P11388); assay: Inhibition of human DNA topoisomerase 2 assessed as DNA cleavage at 20 uM
[13] = biological target: DNA topoisomerase 2-alpha (Homo sapiens) (UniProt P11388); assay: Inhibition of human DNA topoisomerase 2
[14] = tested on: SK-MEL-2; assay: Cytotoxicity against human SK-MEL-2 cells; format: functional; details: read-out: ED50 (the source's name)
[15] = tested on: A549; assay: Cytotoxicity against human A549 cells; format: functional; details: read-out: ED50 (the source's name)
[16] = tested on: HCT-8; assay: Cytotoxicity against human HCT8 cells; format: functional; details: read-out: ED50 (the source's name)
[17] = tested on: RPMI-7951; assay: Cytotoxicity against human RPMI7951 cells; format: functional; details: read-out: ED50 (the source's name)

Chain of DNA topoisomerase 2-alpha (Homo sapiens) (P11388 whole entry): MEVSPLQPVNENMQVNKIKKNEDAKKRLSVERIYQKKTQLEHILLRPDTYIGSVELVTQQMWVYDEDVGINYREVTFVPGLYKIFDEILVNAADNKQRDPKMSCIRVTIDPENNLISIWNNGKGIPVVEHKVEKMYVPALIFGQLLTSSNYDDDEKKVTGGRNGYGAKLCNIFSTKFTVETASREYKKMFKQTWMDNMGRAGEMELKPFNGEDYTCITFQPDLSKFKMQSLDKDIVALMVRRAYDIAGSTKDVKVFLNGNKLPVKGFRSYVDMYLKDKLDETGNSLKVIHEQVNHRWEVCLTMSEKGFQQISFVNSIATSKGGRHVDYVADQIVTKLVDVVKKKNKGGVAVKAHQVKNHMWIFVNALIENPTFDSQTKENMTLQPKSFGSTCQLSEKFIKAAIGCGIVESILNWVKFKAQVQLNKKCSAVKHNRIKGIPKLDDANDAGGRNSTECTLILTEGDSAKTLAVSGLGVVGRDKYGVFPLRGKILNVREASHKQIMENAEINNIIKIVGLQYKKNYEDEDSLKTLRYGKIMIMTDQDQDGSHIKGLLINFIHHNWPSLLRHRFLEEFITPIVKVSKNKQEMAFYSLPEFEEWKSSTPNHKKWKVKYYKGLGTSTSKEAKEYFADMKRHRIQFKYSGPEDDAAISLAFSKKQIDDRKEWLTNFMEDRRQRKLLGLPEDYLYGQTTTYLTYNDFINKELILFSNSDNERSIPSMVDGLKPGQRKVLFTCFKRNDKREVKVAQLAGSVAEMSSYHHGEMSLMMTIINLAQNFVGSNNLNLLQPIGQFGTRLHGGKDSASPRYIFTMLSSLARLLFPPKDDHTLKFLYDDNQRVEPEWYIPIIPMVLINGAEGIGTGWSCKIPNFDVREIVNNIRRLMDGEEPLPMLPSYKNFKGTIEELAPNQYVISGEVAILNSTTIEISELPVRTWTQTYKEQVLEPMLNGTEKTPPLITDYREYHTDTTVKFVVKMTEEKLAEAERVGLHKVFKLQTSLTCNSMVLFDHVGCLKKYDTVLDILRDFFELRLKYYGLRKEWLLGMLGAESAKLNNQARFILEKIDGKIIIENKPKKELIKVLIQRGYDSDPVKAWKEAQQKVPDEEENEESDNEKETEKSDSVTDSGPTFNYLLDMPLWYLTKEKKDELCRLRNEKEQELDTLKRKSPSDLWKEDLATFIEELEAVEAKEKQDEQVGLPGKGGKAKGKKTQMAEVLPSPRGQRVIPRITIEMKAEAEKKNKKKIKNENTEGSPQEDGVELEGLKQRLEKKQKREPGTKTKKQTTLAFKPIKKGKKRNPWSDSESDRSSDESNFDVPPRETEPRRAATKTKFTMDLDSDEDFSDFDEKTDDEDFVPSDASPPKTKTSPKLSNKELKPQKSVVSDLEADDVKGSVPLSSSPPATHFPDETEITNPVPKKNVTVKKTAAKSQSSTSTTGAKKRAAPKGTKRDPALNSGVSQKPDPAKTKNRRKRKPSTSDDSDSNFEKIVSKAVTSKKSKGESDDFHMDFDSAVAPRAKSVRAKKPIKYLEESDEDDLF

Structure (SMILES): Cc1cnc2[nH]c(-c3cccc(Cl)c3)cc(=O)c2c1
GI50 [6]: 269 nM | TGI [6]: 72400 nM

Structure (SMILES): O=c1cc(-c2ccccc2F)[nH]c2ccc(N3CCCC3)cc12
GI50 [7]: ≤ 10 nM | GI50 [8]: 22.4 nM

Structure (SMILES): COc1cc([C@@H]2c3cc4c(cc3[C@@H](Nc3ccc(NC(=O)c5cc([N+](=O)[O-])cn5C)cc3)[C@H]3COC(=O)[C@H]23)OCO4)cc(OC)c1O
IC100 [4]: 12.5 µM | GI50 [9]: < 10 nM | IC50 [10]: 40 nM | CC50 [10]: 150 nM | GI50 [5]: < 10 nM

Structure (SMILES): CC[C@@]1(O)C(=O)OCc2c1cc1n(c2=O)Cc2c-1nc1ccccc1c2/C=N/c1ccccc1N[C@@H]1c2cc3c(cc2[C@@H](c2cc(OC)c(O)c(OC)c2)[C@H]2C(=O)OC[C@@H]21)OCO3
LD50 [11]: > 50 mg/kg/day

Structure (SMILES): COc1cc2c(c(OC)c1OC)-c1ccc(OC)c(=O)cc1[C@@H](NC(C)=O)CC2 [COLCHICINE]
IC50 [1]: 650 nM

Structure (SMILES): COc1cc([C@@H]2c3cc4c(cc3[C@@H](Nc3ccccc3)[C@H]3COC(=O)[C@H]23)OCO4)cc(OC)c1O
inhibition [12]: 125% | ID50 [13]: 50000 nM

Structure (SMILES): COc1cc([C@@H]2c3cc4c(cc3[C@@H](Nc3ccc(F)cc3)[C@H]3COC(=O)[C@H]23)OCO4)cc(OC)c1O
inhibition [12]: 139% | ID50 [13]: 50000 nM

Structure (SMILES): Cc1cnc2[nH]c(-c3cccc(F)c3)cc(=O)c2c1
GI50 [6]: 269 nM | TGI [6]: 72400 nM

Structure (SMILES): Cc1ccc2c(=O)cc(-c3cccc(F)c3)[nH]c2n1
GI50 [6]: 269 nM | TGI [6]: 72400 nM

Structure (SMILES): COc1cccc([C@@H]2CC(=O)c3cc(N4CCCC4)ccc3N2)c1
EC50 [14]: 0.008 µg/mL (≈ 0.0248 µM) | EC50 [3]: 0.008 µg/mL (≈ 0.0248 µM) | EC50 [15]: 0.008 µg/mL (≈ 0.0248 µM) | EC50 [10]: 0.008 µg/mL (≈ 0.0248 µM) | EC50 [5]: 0.008 µg/mL (≈ 0.0248 µM) | EC50 [16]: 0.008 µg/mL (≈ 0.0248 µM)

Structure (SMILES): COc1cccc(-c2cc(=O)c3ccc(C)nc3[nH]2)c1
GI50 [6]: 269 nM | TGI [6]: 72400 nM

Structure (SMILES): COc1cc2c(c(OC)c1OC)-c1ccc(SC)c(=O)cc1C(=O)CC2 [THIOCOLCHICONE]
IC50 [1]: 560 nM

Structure (SMILES): COC(=O)[C@@]12OC[C@]34[C@H](OC(=O)C[C@@H]13)[C@H](OC(=O)C=C(C)C)[C@H]1C(C)=C(O[C@@H]3O[C@H](CO)[C@@H](O)[C@H](O)[C@H]3O)C(=O)C[C@]1(C)[C@H]4[C@@H](O)[C@@H]2O [BRUCEOSIDE C]
EC50 [17]: < 0.1 µg/mL | EC50 [10]: < 0.1 µg/mL

Structure (SMILES): COc1cc([C@@H]2c3cc4c(cc3[C@@H](O[C@@H]3O[C@@H]5CO[C@@H](C)O[C@H]5[C@H](O)[C@H]3O)[C@H]3COC(=O)[C@H]23)OCO4)cc(OC)c1O [ETOPOSIDE]
IC100 [4]: 100 µM | IC50 [10]: 200 nM | CC50 [10]: 3000 nM

The next lines start with results.

IC50 [1]: 560 nM
Structure (SMILES): COc1cc2c(c(OC)c1OC)-c1ccc(SC)c(=O)cc1[C@@H](OC(C)=O)CC2

EC50 [2]: < 0.35 nM
Structure (SMILES): C=C(C)[C@@H]1CC[C@]2(C(=O)O)CC[C@]3(C)[C@H](CC[C@@H]4[C@@]5(C)CC[C@H](OC(=O)CC(C)(C)C(=O)O)C(C)(C)[C@@H]5CC[C@]43C)[C@@H]12 [BEVIRIMAT]

Activity [4]: Active
Structure (SMILES): CNc1ccc2c(cc1=O)[C@@H](NC(C)=O)CCc1cc(O)c(O)c(O)c1-2
EC50 [3]: 0.72 µg/mL (≈ 2.02 µM) | EC50 [5]: 0.36 µg/mL (≈ 1.01 µM)

EC50 [2]: 1.7 µg/mL
Structure (SMILES): CC1(C)CC[C@]2(C(=O)O)CC[C@]3(C)C(=CC[C@@H]4[C@@]5(C)CC[C@H](O)C(C)(C)[C@@H]5CC[C@]43C)[C@@H]2C1 [OLEANOLIC_ACID]

EC50 [2]: 0.0039 µg/mL
Structure (SMILES): CC1(C)CC[C@]2(C(=O)O)CC[C@]3(C)C(=CC[C@@H]4[C@@]5(C)CC[C@H](OC(=O)CC(C)(C)C(=O)O)C(C)(C)[C@@H]5CC[C@]43C)[C@H]2C1

IC50 [1]: 560 nM
Structure (SMILES): COc1cc2c(c(OC)c1OC)-c1ccc(SC)c(=O)cc1[C@@H](OC(=O)c1ccncc1)CC2

EC50 [2]: 0.4 nM
Structure (SMILES): CC1(C)Oc2ccc3ccc(=O)oc3c2[C@@H](OC(=O)C23CCC(C)(C(=O)O2)C3(C)C)[C@H]1OC(=O)C12CCC(C)(C(=O)O1)C2(C)C (stereo partly drawn)

EC50 [2]: 0.5 µg/mL
Structure (SMILES): COc1c2c(cc3c1-c1c(cc4c(c1OC)OCO4)[C@H](OC(=O)c1ccccc1)[C@@](C)(O)[C@@H](C)C3)OCO2 [SCHISANTHERIN D]

EC50 [2]: 0.006 µg/mL
Structure (SMILES): COc1cc2c(c(OC)c1OC)-c1c(cc3c(c1OC)OCO3)[C@H](OC(=O)c1ccccc1)[C@@](C)(O)[C@@H](C)C2 [GOMISIN G]

EC50 [2]: 0.8 µg/mL
Structure (SMILES): COc1cc2c(c(OC)c1OC)-c1c(cc3c(c1OC)OCO3)C[C@@H](C)[C@@H](C)C2 [KADSURANIN]

EC50 [2]: 1300 nM
Structure (SMILES): CC(=O)O[C@@H]1[C@H](OC(=O)CC(C)C)c2c(ccc3ccc(=O)oc23)OC1(C)C [SUKSDORFIN]

EC50 [2]: 0.00016 nM
Structure (SMILES): Cc1cc(=O)oc2c3c(ccc12)OC(C)(C)[C@H](OC(=O)C12CCC(C)(C(=O)O1)C2(C)C)[C@@H]3OC(=O)C12CCC(C)(C(=O)O1)C2(C)C (stereo partly drawn)

EC50 [2]: 1.2 µg/mL
Structure (SMILES): COc1c2c(cc3c1-c1c(cc4c(c1OC)OCO4)C[C@H](C)[C@H](C)C3)OCO2 [SCHISANDRIN C]

Activity [4]: Active
Structure (SMILES): CC(=O)N[C@H]1CCc2cc(O)c(O)c(O)c2-c2ccc(NC(=O)c3ccc(Cl)cc3)c(=O)cc21
EC50 [3]: 0.98 µg/mL (≈ 2.04 µM) | EC50 [5]: 0.48 µg/mL (≈ 0.998 µM)

IC50 [1]: 560 nM
Structure (SMILES): COc1cc2c(c(OC)c1OC)-c1ccc(SC)c(=O)cc1[C@@H](O)CC2

EC50 [2]: < 0.1 µg/mL
Structure (SMILES): CC1(C)C=C2[C@H]3CC[C@@H]4[C@@]5(C)CCC(=O)C(C)(C)[C@@H]5CC[C@@]4(C)[C@]3(C)CC[C@@]2(C(=O)O)CC1 [MORONIC ACID]

— ChEMBL document CHEMBL1146484, “Current developments in the discovery and design of new drug candidates from plant natural product leads” (J Nat Prod, 2004)
